In patent US20040171566A1, “Antisense modulation of p38 mitogen activated protein kinase expression” (priority 1999, published 2004):

Legend:
[1] = tested on: p38α; assay: p38α knock-down in mouse T cell line EL4, Western blotting; type: cell-based
[2] = tested on: mouse p38α mRNA; assay: Mouse p38α mRNA levels in bEND.3 cells, quantitative real-time PCR; type: cell-based; design: % Inhib. mouse p38α: concentration or dose not given beside the values
Summary of the method: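 Mouse bEND.3 cells, antisense oligonucleotide-treated; p38α mRNA measured by one-step real-time RT-PCR (RT 30 min at 48 °C, then 40 cycles) with a FAM/TAMRA probe. Levels normalized to GAPDH or RiboGreen total RNA, and percent inhibition derived from standard curves of untreated-control mRNA.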

[3] = tested on: rat p38α mRNA; assay: Rat p38α mRNA levels in NR-8383 cells, quantitative real-time PCR; type: cell-based; details: 300 nM oligonucleotide with FuGENE 6, 24 hours, mRNA by quantitative real-time PCR, average of two experiments
[4] = tested on: ovalbumin (OVA)-induced airway hyperresponsiveness and allergic inflammation; assay: Mouse model of allergic inflammation (OVA), aerosol oligonucleotide administration; type: in vivo
Experimental: In the mouse model of allergic inflammation, mice were sensitized and challenged with aerosolized chicken ovalbumin (OVA). Airway responsiveness was assessed by inducing airflow obstruction with a methacholine aerosol using a noninvasive method. This methodology utilized unrestrained conscious mice that are placed into the main chamber of a plthysmograph (Buxco Electronics, Inc., Troy, N.Y.). Pressure differences between this chamber and a reference chamber were used to extrapolate minute volume, breathing frequency and enhanced pause (Penh). Penh is a dimensionless parameter that is a function of total pulmonary airflow in mice (i.e., the sum of the airflow in the upper and lower respiratory tracts) during the respiratory cycle of the animal. The lower the Penh, the greater the airflow. This parameter closely correlates with lung resistance as measured by traditional invasive techniques using ventilated animals (Hamelmann et al., 1997). Dose-response data were plotted as raw Penh values to increasing concentrations of methacholine. This system was used to test the efficacy of an antisense oligonucleotide targeted to mouse p38α (ISIS 101757; SEQ ID NO: 177). Mismatched p38α oligonucleotide (ISIS 101758; SEQ ID NO: 266) was used as a negative control.
[…]. […] AHR was measured 24 hours after OVA challenge.
Animals were injected with a lethal dose of ketamine, the trachea was exposed and a cannula was inserted and secured by sutures. The lungs were lavaged twice with 0.5 ml aliquots of ice cold PBS with 0.2% FCS. The recovered BAL fluid was centrifuged at 1,000 rpm for 10 min at 4° C., frozen on dry ice and stored at −80° C. until used. Luminex was used to measure cytokine levels in BAL fluid and serum.
Cytospins of cells recovered from BAL fluid were prepared using a Shandon Cytospin 3 (Shandon Scientific LTD, Cheshire, England). Cell differentials were performed from slides stained with Leukostat (Fisher Scientific, Pittsburgh, Pa.). Total cell counts were quantified by hemocytometer and, together with the percent type by differential, were used to calculate specific cell number.
Before resection, lungs were inflated with 0.5 ml of 10% phosphate-buffered formalin and fixed overnight at 4° C. The lung samples were washed free of formalin with 1×PBS and subsequently dehydrated through an ethanol series prior to equilibration in xylene and embedded in paraffin. Sections (6μ) were mounted on slides and stained with hematoxylin/eosin, massons trichome and periodic acid-schiff (PAS) reagent. Parasagittal sections were analyzed by bright-field microscopy. Mucus cell content was assessed as the airway epithelium staining with PAS. Relative comparisons of mucus content were made between cohorts of animals by counting the number of PAS-positive airways.

[5] = tested on: p38α mRNA; assay: Reduction of p38α mRNA in fibroblasts; type: cell-based; details: read-out: IC50 for reducing p38α mRNA
[6] = sensitized mice, aerosol, compared to the mismatched control

With “ISIS 101757: antisense oligonucleotide targeted to mouse p38α, SEQ ID NO 177; 2′-MOE gapmer, all phosphorothioate linkages (antisense AGGTGCTCAGGACTCCATTT; all phosphorothioate, sugars by position and methylation of C not given here; 2'-MOE gapmer)” the p38α knock-down effect [1] was “confirmed”, the “% Inhib. mouse p38α” value ([2]; bEND.3 cells, mRNA by quantitative real-time PCR, average of two experiments) was 88% and the IC50 ([2]; endothelial cells, read-out: IC50 for reducing p38α mRNA) was < 50 nM. For the same substance, the “% Inhib. rat p38α” value [3] was 53%, the “provocation concentration of methacholine required to achieve doubling of airway reactivity (PC200)” value ([4]; OVA-challenged mice, inhaled) was “increases” and the “methacholine-induced AHR” value ([4]; OVA-sensitized mice, aerosol, whole body plethysmography) was “dose-dependently suppressed”. The “OVA-induced increases in eosinophils recovered in BAL fluid” value ([4]; aerosol) was “significantly (P<0.05) reduced”, the “OVA-induced increases in total cell counts recovered in BAL fluid” value ([4]; aerosol) was “significantly (P<0.05) reduced” and the “OVA-induced inflammatory cell infiltration into the lungs (H&E stain)” value ([4]; aerosol, histology) was “markedly inhibited”. The “mucus hypersecretion in the airway epithelium (PAS stain)” value ([4]; aerosol, histology) was “markedly inhibited”, the “blood levels of OVA-specific IgE” value [4, 6] was “significantly (P<0.05);lowered” and the “blood levels of OVA-specific IgG1” value [4, 6] was “significantly (P<0.05);lowered”. For the same substance, the “blood levels of total IgE” value [4, 6] was “significantly (P<0.05);lowered” and the IC50 [5] was ~250 nM.
